Read-outs that look alike come from different tables or passages of the source. Starred links: 1 amine or outer side, 2 acyl side, 3 side chain; linkers in the order of their positions; H or OH if unused. Positions of bridges follow the written chain, without caps; N, C: chain ends. Non-standard residues stand in square brackets, D forms with d. Residues, ends and D or L forms follow the SMILES beside them. *: point of attachment. dArg(Nω-CH2C6H4-3-CH2Gua) = N=C(N)NCc1cccc(CNC(=N)NCCC[C@@H](N)C(=O)O)c1; Bip(4'-NH) = O=C([C@H](Cc1ccc(-c2ccc(N[*:3])cc2)cc1)N[*:1])[*:2]; Indazole3carbonyl(1-CH2COOH) = O=C(O)Cn1nc(C(=O)*)c2ccccc21; Bip(4'-COOH) = N[C@@H](Cc1ccc(-c2ccc(C(=O)O)cc2)cc1)C(=O)O; Bip(4'-NHAc) = CC(=O)Nc1ccc(-c2ccc(C[C@H](N)C(=O)O)cc2)cc1; Pro(cis-4-Ph) = O=C(O)[C@@H]1C[C@H](c2ccccc2)CN1; Ala(imidazol-2-yl) = N[C@@H](Cc1ncc[nH]1)C(=O)O; Ala(morpholin-4-yl) = N[C@@H](CN1CCOCC1)C(=O)O; Benzoyl(3-OCH2COOH) = O=C(O)COc1cccc(C(=O)*)c1; Bip = N[C@@H](Cc1ccc(-c2ccccc2)cc1)C(=O)O; Val(3-OH) = CC(C)(O)[C@H](N)C(=O)O; 2Pal = N[C@@H](Cc1ccccn1)C(=O)O; 3Pal = N[C@@H](Cc1cccnc1)C(=O)O; Cha = N[C@@H](CC1CCCCC1)C(=O)O; Tle = CC(C)(C)[C@H](N)C(=O)O; Sar = CNCC(=O)O
Target: TNFα (Homo sapiens, UniProt P01375)
Experiment: TNF-Induced HEK-Blue Assay
Type: cell-based
[1] = HEK-Blue-CD40L cells, NF-kB-driven secreted alkaline phosphatase reporter, TNFα 0.5 ng/ml, 18 h, read-out: TNF induced HEK-Blue assay IC50 value

Chain of TNFα (P01375 77-233 limits assumed): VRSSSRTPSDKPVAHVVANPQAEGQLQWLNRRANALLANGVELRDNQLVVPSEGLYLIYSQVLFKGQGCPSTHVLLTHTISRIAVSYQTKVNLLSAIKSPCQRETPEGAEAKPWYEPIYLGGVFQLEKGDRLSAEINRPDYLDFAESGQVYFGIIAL

| IC50 [1] [nM] | SMILES | IC50 [nM] |
| --- | --- | --- |
| 50 to 200 | CC[C@H](C)[C@@H]1NC(=O)[C@@H](CCCNC(=N)N)NC(=O)[C@H](CC(=O)O)NC(=O)[C@@H]2CCCN2C(=O)CN(C)C(=O)[C@H](Cc2ccc(-c3ccc(NC(=O)c4cccc(OCC(=O)O)c4)cc3)cc2)NC(=O)[C@H](Cc2ccc(-c3ccccc3)cc2)NC(=O)[C@H](CC2CCCCC2)NC(=O)CSC[C@@H](C(=O)NCC(N)=O)NC(=O)[C@H](CC(C)C)NC(=O)[C@H](Cc2cnc[nH]2)NC(=O)[C@H](C(C)C)NC(=O)[C@@H]2CCCN2C1=O [Example 442] ({CH2CO}-[Cha][Bip][Bip(4'-NH)](Benzoyl(3-OCH2COOH))[Sar]PD[dR]IPVHLCG-NH2; thioether N-13) | – |
| 50 to 200 | CC(=O)Nc1ccc(-c2ccc(C[C@@H]3NC(=O)[C@H](Cc4ccc(-c5ccccc5)cc4)NC(=O)[C@H](C(C)(C)O)NC(=O)CSC[C@@H](C(=O)NCC(N)=O)NC(=O)[C@H](CC(C)C)NC(=O)[C@H](Cc4ccc(O)cc4)NC(=O)[C@H](C(C)C)NC(=O)[C@@H]4CCCN4C(=O)[C@H](C(C)C)NC(=O)[C@H](CCCNC(=N)N)NC(=O)[C@H](CC(=O)O)NC(=O)[C@@H]4CCCN4C(=O)CN(C)C3=O)cc2)cc1 [Example 194] ({CH2CO}-[Val(3-OH)][Bip][Bip(4'-NHAc)][Sar]PDRVPVYLCG-NH2; thioether N-13) | – |
| 50 to 200 | CC(C)C[C@@H]1NC(=O)[C@H](Cc2ccc(O)cc2)NC(=O)[C@H](C(C)C)NC(=O)[C@@H]2CCCN2C(=O)[C@H](C(C)C)NC(=O)[C@@H](CCCNC(=N)N)NC(=O)[C@H](CC(=O)O)NC(=O)[C@@H]2C[C@H](c3ccccc3)CN2C(=O)CN(C)C(=O)[C@H](Cc2ccc(-c3ccccc3)cc2)NC(=O)[C@H](Cc2ccc(-c3ccccc3)cc2)NC(=O)[C@H](CN2CCOCC2)NC(=O)CSC[C@@H](C(=O)NCC(N)=O)NC1=O [Example 98] ({CH2CO}-[Ala(morpholin-4-yl)][Bip][Bip][Sar][Pro(cis-4-Ph)]D[dR]VPVYLCG-NH2; thioether N-13) | – |
| < 50 | CC[C@H](C)[C@@H]1NC(=O)[C@@H]2CCCN2C(=O)[C@H]([C@@H](C)CC)NC(=O)[C@@H](CCCNC(=N)N)NC(=O)[C@H](CC(=O)O)NC(=O)[C@H](Cc2ccccc2)NC(=O)CN(C)C(=O)[C@H](Cc2ccc(-c3ccc(NC(C)=O)cc3)cc2)NC(=O)[C@H](Cc2ccc(-c3ccc(C(=O)O)cc3)cc2)NC(=O)[C@H](C(C)(C)C)NC(=O)CSC[C@@H](C(=O)NCC(N)=O)NC(=O)[C@H](CC(C)C)NC(=O)[C@H](Cc2cnc[nH]2)NC1=O [Example 295] ({CH2CO}-[Tle][Bip(4'-COOH)][Bip(4'-NHAc)][Sar]FD[dR]IPIHLCG-NH2; thioether N-13) | – |
| 200 to 2000 | CC(C)C[C@@H]1NC(=O)[C@H](CCCNC(=N)N)NC(=O)[C@H](C(C)C)NC(=O)[C@@H]2CCCN2C(=O)[C@H](C(C)C)NC(=O)[C@H](CCCNC(=N)N)NC(=O)[C@H](CC(=O)O)NC(=O)[C@@H]2CCCN2C(=O)CN(C)C(=O)[C@H](Cc2ccc(-c3ccccc3)cc2)NC(=O)[C@H](Cc2ccc(-c3ccccc3)cc2)NC(=O)[C@H](Cc2cccnc2)NC(=O)CSC[C@@H](C(=O)NCC(N)=O)NC1=O [Example 29] ({CH2CO}-[3Pal][Bip][Bip][Sar]PDRVPVRLCG-NH2; thioether N-13) | – |
| – | CC(C)C[C@@H]1NC(=O)[C@H](Cc2ncc[nH]2)NC(=O)[C@H](C(C)C)NC(=O)[C@@H]2CCCN2C(=O)[C@H](C(C)C)NC(=O)[C@@H](CCCNC(=N)NCc2cccc(CNC(=N)N)c2)NC(=O)[C@H](CC(=O)O)NC(=O)[C@H](Cc2ccccn2)NC(=O)CN(C)C(=O)[C@H](Cc2ccc(-c3ccc(NC(=O)c4nn(CC(=O)O)c5ccccc45)cc3)cc2)NC(=O)[C@H](Cc2ccc(-c3ccc(C(=O)O)cc3)cc2)NC(=O)[C@H](CC2CCCCC2)NC(=O)CSC[C@@H](C(=O)NCC(N)=O)NC1=O [Example 556] ({CH2CO}-[Cha][Bip(4'-COOH)][Bip(4'-NH)](Indazole3carbonyl(1-CH2COOH))[Sar][2Pal]D[dArg(Nω-CH2C6H4-3-CH2Gua)]VPV[Ala(imidazol-2-yl)]LCG-NH2; thioether N-13) | < 50 |
